Laboratory results: patent US7169604B1, “Method for PR-39 peptide mediated selective inhibition of IκBα degradation” (Beth Israel Deaconess Medical Center, priority 1998, dated 2007)
Ends that are not written are not given here.

Tests used:
[1] = Infarct size in mice, ischemia-reperfusion injury; type: in vivo; details: infusion prior to restoration of flow
Text: • a. Inhibition of ischemia-reperfusion injury. Restoration of blood flow to the myocardium in the setting of acute myocardial infarction leads to further damage to ischemic but still live heart muscle due to an influx of inflammatory blood cells that is mediated by NFκB-activated expression of endothelial adhesion molecules ICAM-1 and VCAM-1. Infusion of PR39 prior to restoration of flow blocks this effect due to inhibition of NFκB activity and effectively protects from further myocardial injury. […] Inhibition of chemical pancreatitis. Tissue injury in the pancreas due to chemical or hormonal injury is one of the more common causes of acute pancreatitis. This is largely mediated by NFκB. Pre-treatment with PR39 blocks this injury. • c. PR39 will block any other injury activated NFκB-dependent gene transcription and thus can be used to block the development of skin wounds, ulcers (stomach, duodenum), etc.

IκBα = test: Reversibility of inhibition of IκBα degradation after washout in U937 cells; type: cell-based, human; details: 100 nM for 45 min, washed, 45 min later TNF-α 1 ng/ml, 10 min
Method: In parallel cells were exposed to MG132, a rapidly reversible competitive inhibitor of the proteasome or with lactacystin which covalently and irreversibly modifies the active site threonine residues. The results are shown by FIG. 1F.
U937 cells were pretreated with 100 nM of PR-39, 10 μM of either MG132 or lactacystin (LC) or buffer (Control) for 45 min. These cells were then extensively washed with fresh medium. 45 min later TNF-α (1 ng/ml) was added to medium, and the extent of IκBα degradation was determined 10 min later by Western blotting.

NFκB = NFκB electromobility shift assay in mouse pancreas, caerulein-induced pancreatitis; type: in vivo; details: 10 mg/kg i.v. 1 hour before caerulein; 30 min later
IκBα-VCP = biological target: T1, IκBα-VCP (Homo sapiens, UniProt P25963+P55072); test: IκBα-VCP binding (IκBα immunoprecipitation, anti-VCP Western blot) in ECV304 cells; type: cell-based; details: wild type ECV304 cells, 10 μM pretreatment, TNF-α 1 ng/ml
T1 construct: endogenous in cells; host or cells: wild type ECV304
Text: Wild type ECV304 cells (treated as described in FIG. 4C) were subjected to immunoprecipitation with anti-IκBα antibody (IκBα-IP) followed by Western blotting with anti-VCP-3 antibody (1:3000, dilution; a kind gift of Dr. C. C. Li (NIH)). Note the presence of 90 kD VCP band in the presence or absence of PR-39 treatment.
Pretreatment with PR-39 increased the amount of VCP in the IκBα immunoprecipitate (FIG. 4D) as would be expected given the increased amount of ubiquitinated forms of IκBα in the PR-39-treated cells.

T1 sequence (P25963 whole entry): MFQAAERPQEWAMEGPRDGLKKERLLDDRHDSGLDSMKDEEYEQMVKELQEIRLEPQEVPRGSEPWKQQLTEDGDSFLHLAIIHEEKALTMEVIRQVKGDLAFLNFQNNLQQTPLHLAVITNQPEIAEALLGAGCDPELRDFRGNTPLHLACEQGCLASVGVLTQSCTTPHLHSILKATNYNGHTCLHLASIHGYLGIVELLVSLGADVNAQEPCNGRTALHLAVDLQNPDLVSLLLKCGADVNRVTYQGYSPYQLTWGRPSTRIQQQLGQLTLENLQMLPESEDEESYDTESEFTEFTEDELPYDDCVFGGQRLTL
T1 sequence (P55072 2-806 limits assumed): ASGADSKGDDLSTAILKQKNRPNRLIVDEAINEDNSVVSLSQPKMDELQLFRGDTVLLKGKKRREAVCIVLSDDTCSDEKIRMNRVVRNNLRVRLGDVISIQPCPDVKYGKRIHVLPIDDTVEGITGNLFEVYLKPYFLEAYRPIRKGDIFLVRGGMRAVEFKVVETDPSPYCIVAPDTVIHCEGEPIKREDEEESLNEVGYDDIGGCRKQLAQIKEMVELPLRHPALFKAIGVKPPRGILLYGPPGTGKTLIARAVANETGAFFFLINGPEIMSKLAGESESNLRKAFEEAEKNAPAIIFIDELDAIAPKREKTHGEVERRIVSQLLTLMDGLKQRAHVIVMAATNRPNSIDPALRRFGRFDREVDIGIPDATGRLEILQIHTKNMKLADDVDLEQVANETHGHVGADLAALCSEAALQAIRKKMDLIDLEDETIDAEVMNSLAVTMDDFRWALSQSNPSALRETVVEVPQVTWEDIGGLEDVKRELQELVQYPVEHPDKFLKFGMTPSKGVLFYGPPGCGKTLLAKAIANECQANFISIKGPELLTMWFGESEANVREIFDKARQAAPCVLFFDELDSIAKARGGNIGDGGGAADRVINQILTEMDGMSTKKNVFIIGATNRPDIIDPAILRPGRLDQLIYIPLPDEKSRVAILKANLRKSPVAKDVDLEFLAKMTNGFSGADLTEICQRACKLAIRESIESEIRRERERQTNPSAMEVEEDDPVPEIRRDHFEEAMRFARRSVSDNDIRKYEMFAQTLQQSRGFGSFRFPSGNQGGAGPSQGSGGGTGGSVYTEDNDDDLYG

RRRPRPPYLPRPRPPPFFPPRLPPRIPPGFPPRFPPRFP [PR-39]
reduction of infarct size [1]: 60% | extent of IκBα degradation after washout (IκBα): complete disappearance of IκBα protein | NFκB gel shift in mouse pancreas (NFκB): almost complete disappearance of NFκB gel shift | IκBα-VCP binding (IκBα-VCP): does not inhibit IκBα-VCP binding
